Reference: article PMC10638507 (Acta Pharmaceutica Sinica. B, 2023)

Legend:
Type in all cases: biochemical, Paris polyphylla var. yunnanensis
[1] = tested on: UGT80A41; assay: initial rates of glucoside formation, UPLC-MS/MS, Michaelis-Menten fit; conditions: read-out: apparent KM; 2 mmol/L UDP-glucose, 50 mmol/L Tris-HCl pH 8.0, 37 °C, 30 min
[2] = tested on: UGT80A40; assay: as above; conditions: read-out: apparent KM; 2 mmol/L UDP-glucose, 50 mmol/L Tris-HCl pH 8.0, 37 °C, 30 min
[3] = tested on: UGT73CE1; assay: initial rates of rhamnoside formation, UPLC-MS/MS, Michaelis-Menten fit; conditions: read-out: apparent KM; 1.5 mmol/L UDP-rhamnose, 50 mmol/L Tris-HCl pH 8.0, 37 °C, 30 min

Km [1]	Km [2]	Km [3]	SMILES
5.9 ± 0.5 µM	6.1 ± 0.7 µM		C[C@@H]1CC[C@@]2(OC1)O[C@H]1C[C@H]3[C@@H]4CC=C5C[C@@H](O)CC[C@]5(C)[C@H]4CC[C@]3(C)[C@H]1[C@@H]2C [compound 1, diosgenin]
		7.1 ± 2.1 µM	C[C@@H]1CC[C@@]2(OC1)O[C@H]1C[C@H]3[C@@H]4CC=C5C[C@@H](O[C@@H]6O[C@H](CO)[C@@H](O)[C@H](O)[C@H]6O)CC[C@]5(C)[C@H]4CC[C@]3(C)[C@H]1[C@@H]2C [compound 3, trillin]
